The subject of assay [1] is diabetic NOD mice. Put plainly: Weekly non-fasting blood glucose monitoring. The format is in vivo, mouse. The settings on record: FIG. 16A. How it is done: Through the use of Ultra Glucosemeter (Accu-Chek Aviva/Roche Diagnostic, Laval, Quebec, Canada) blood glucose levels for all mice were monitored via tail venipuncture once a week on a regular basis beginning at the age of 8 weeks. Animals with non-fasting or those having blood glucose values ≧14.9 mmol/L after the glucose challenge (glucose tolerance) test were identified as diabetic. […] The selected mice were 9 weeks old and were treated with 0.1 mg/kg q2d of tacrolimus (Prograf (5 mg/ml), Astellas) subcutaneously administered in 0.2 ml saline for three weeks after which animals were mated to males of the same strain (See FIG. 1). Vehicle (0.2 ml saline, s.q.) treated hyperglycemic NOD female mice were allowed two weeks in diabetes before they were mated to males of the same strain. Facial (mandibular) venous blood samples were collected from treated animals at 24 and 48 hours between injections and at pregnancy days 0.5, 2.5, 4.5, 6.5, 8.5, 10.5, 12.5, 14.5, 16.5 and 18.5 respectively following a standard procedure for facial bleed in mice (Golde et al Lab Anim (NY) 2005 34:39-43).

The test system of assay [2] is type 2 diabetic NZO and DIO mice. Put plainly: Serum testosterone and luteinizing hormone (PCOS phenotype). It is filed as in vivo, mouse. How it is done: Hypertestosteronism (Hyperandrogenism) and low serum levels of Luteinizing hormone (LH) are among the cardinal biochemical features of established PCOS syndrome. […] Serum samples from tacrolimus-treated and saline-injected type 2 diabetic NZO and DIO mice were analyzed for their testosterone and luteinizing hormone (LH) levels in the morning of vaginal plug detection after mating and at 4.5 days later to assess the integrity of their pituitary-ovarian endocrine interactions during successful mating and at embryo implantation.
Twenty NZO and DIO/B6 female mice were maintained on a high fat diet consisted of 60% kcal fat, 20% kcal protein and 20% kcal carbohydrate, with a total energy mass of 5.24 kcal/gm (D12492, Research Diets Inc.; Cedarlane Laboratories, Burlington, Ontario, Canada) starting at 7 weeks of age and maintained on the diet for a total of 12 weeks of study period during which their weekly body weight changes and non-fasting blood glucose values were recorded. Mice which became obese as defined by having a Body mass index (BMI) value of 30, and tested positive for glucose intolerance were selected for an initial treatment episode with tacrolimus after being fed for four weeks with the high fat diet (See FIG. 2). […]

These results are taken from patent US9427433B2, “Methods and compositions for enhancing fertility and/or inhibiting pregnancy failure and restoring glucose tolerance” (Queen's University at Kingston, priority 2011, dated 2016).

With `C=CC[C@@H]1/C=C(\C)C[C@H](C)C[C@H](OC)[C@H]2O[C@@](O)(C(=O)C(=O)N3CCCC[C@H]3C(=O)O[C@H](/C(C)=C/[C@@H]3CC[C@@H](O)[C@H](OC)C3)[C@H](C)[C@@H](O)CC1=O)[C@H](C)C[C@@H]2OC` [tacrolimus], the “weekly non-fasting blood glucose (glycemic phenotype)” value in assay [1] is on record as “effective in restoring normal glycemic phenotype”. Also, the “pituitary-ovarian response and hormonal release to mating” value in assay [2] (morning of vaginal plug and 4.5 days later) was “restored normal pituitary-ovarian response and hormonal release to mating”. The “development of PCOS phenotype (hypertestosteronism, low serum LH)” value in assay [2] (short-term administration, high fat diet) was “prevented the development of PCOS phenotype”.
